Test results from patent US20060234919A1, “Use” (priority 2001, published 2006).

How the values were obtained:
Type in all cases: in vivo, rat
[1] = tested on: carrageenan induced hyperalgesia; assay: carrageenan induced hyperalgesia, Randall Selitto Test; details: 1000 μg/kg s.c.; 1 hour and 6 hours after the injection, compared to controls; p<0.05
Protocol: Nociceptive thresholds were measured in the rats given oxytocin 1000 μg/kg s.c. and their controls. This was done by determining the response to mechanical stimulation using the Randall Selitto Test (Ugo Basile, type 7200, Italy). The mechanical stimulus was applied to the dorsal surface of the hindpaw by a wedged-shape pusher at a loading rate of 48 g/s and the pressure required to initiate the struggle response was measured. All rats were trained on three consecutive days before testing.

allergic rhinitis = assay: allergic rhinitis, sneezing and nasal rubbing after antigen challenge in sensitised rats; details: % as compared to untreated; topical 10 μl/each nostril 1 h before antigen challenge; counted 30 min
Protocol: Six-week-old male Wistar rats were housed in an air-conditioned room maintained at about 25° C. with humidity of about 50%. Rats were given a standard laboratory rodent chow and water ad libitum.
Rats were generally sensitised by injection of 0.6 ml physiological saline containing egg albumin (1 mg), alum (2 mg) and […] killed Bordetella pertussis into the four footpads on the first day. Five days later they were boosted by subcutaneous injection of 1 ml of physiological saline containing egg albumin (0.5 mg) in 10 sites on the back. Then, local sensitisation was performed every day for about one week from day 14 by dripping the egg albumin dissolved in physiological saline (1 mg/ml, 10 μl) into the bilateral nasal cavities using a micropipette.
After dripping 10 μl of egg albumin dissolved in physiological saline solution (1 mg/ml) into the bilateral nasal cavities, the numbers of nasal rubbing and sneezing were counted for 30 min and was set to 100%.
In this study, the rats were used following intranasal sensitisation (from day 21 to day 23 after the first sensitisation). On the last day, drugs (saline or oxytocin) were given topically (10 μl/each nostril) 1 h before topical antigen challenge. […] Also saline caused a minor decrease.

TNF-alpha = TNF-alpha in BALF in SDX-induced eosinophilic airway inflammation; details: 1 mg/ml s.c.
Protocol: 12 male Wistar rats aged 11-12 weeks, with an average weight of 323 g, were used in the study. The animals (n=3 in each group) were evaluated at 3 h and 24 h after induced inflammation. These were compared with control animals (n=3 in each group) examined at the same time points. An eosinophilic airway inflammation was induced by intratracheal instillation of SDX particles (G-200 Superfine, Pharmacia & Upjohn, Uppsala, Sweden) dissolved in phosphate-buffered saline (PBS) as previously described (Andersson S E, Zackrisson C, Hemsen A, Lundberg J M. Regulation of lung endothelin content by the glucocorticosteroid budesonide. Biochem Biophys Res Commun 1992, 188:1116-1121) and compared with that in control animals receiving a similar volume of PBS intratracheally. BAL was performed by instillation of 3+2+2 ml of PBS in the right stem bronchus distal to the upper lobe, and the procedure was repeated in the main bronchus on the left side. Immediately after the BAL procedure, the lungs were removed and frozen in liquid nitrogen for tissue analyses 3 h and 24 h after SDX instillation (n=3 animals at each time point) and 3 h and 24 after intratracheal instillation of saline into control animals (n=3). Oxytocin 1 mg/ml was given s.c.
TNF-alpha was measured with a rat-specific sandwich enzyme-linked immunosorbent assay (ELISA; Factor-Test-X, Genzyme, Cambridge, Mass.). […]

[2] = tested on: caerulein-induced pancreatitis; assay: caerulein-induced pancreatitis, pancreatic edema; details: subcutaneous pre-treatment 1 mg/ml; caerulein alone 8.11±0.96, control 3.12±0.52
Protocol: Caerulein-induced pancreatitis: Female Sprague-Dawley rats (200-250 g) were anaesthetized with pentobarbitone sodium and phenobarbitone sodium (each 40 mg/kg, i.p.). The cholecystokinin analogue caerulein (8 nmol/kg in 2 h) was infused via one jugular vein for exocrine hyperstimulation and induction of acute edematous pancreatitis (Lampel M, Kern H F. Acute interstitial pancreatitis in the rat in-duced by excessive doses of a pancreatic secretagogue. Virchows Arch (Pathol Anat) 1997; 373: 97-117), while control animals were infused with a corresponding volume (4 ml/kg/h) of phosphate-buffered saline. Pre-treatment with the kininase II inhibitor captopril ([…], i. p.) was given 30 min prior to the infusion of caerulein. At the end of the experiment, the animals were sacrificed with an overdose of pentobarbital sodium. The pancreatic tissue was dried for 16 h in a vacuum centrifuge and the edema was quantified as fluid wt. per dry wt. of the tissue. For the determination of lipase activity in serum, the blood was collected following decapitation in separate groups of rats. The pancreas of these animals was excised an placed immediately into 2 ml of a 154 mmol/l solution of NaCl. After centrifugation at 2×10^5 m/s^2 for 25 min the supernatant was stored at −80° C. All samples were assayed for lipase activity (lipase test Boehringer Mannheim, Germany).

[3] = tested on: cyclophosphamide-induced cystitis; assay: cyclophosphamide-induced cystitis, plasma protein extravasation (Evans blue); details: oxytocin pre-treatment, 4 h
Protocol: Cyclophosphamide (100 mg/kg) was injected i.p. in barbiturate-anaesthetised rats for the induction of acute cystitis. Control animals were injected with an appropriate volume (4 ml/kg) of the vehicle (154 mmol/l NaCl). Five min prior to the administration of cyclophosphamide or vehicle all animals were injected i.v. with the protein marker, Evans blue (20 mg/kg). At 4 h, when increases in vascular permeability have reached maximum values in this model (Aramori I, Zenkoh J, Morikawa N, O'Donnell N. Asano M, Nakamur K et al. Novel subtype-selective nonpeptide bradykinin antagonists FR167334 and FR173657. Mol Pharmacol 1997; 51: 171-176), the uriny bladder was excised following exsanguination, and the total tissue content of Evans blue was determined as above.
Plasma protein extravasation in the urinary bladder of anaesthetised rats was made 4 h after i.p. injection of cyclophosphamide (100 mg/kg). Control animals were treated with appropriate volumes of the vehicles ([…] silicone oil or 4 ml/kg 154 mmol/l NaCl solution, respectively). Oxytocin (1 mg/ml) was injected s. c. 1 h before administration of xylene or cyclophosphamide while control rats received DMSO (0.5 ml/kg, s. c.). Plasma protein extravasation is given as total tissue content of the protein marker, Evans blue, given i. v. (20 mg/kg) 5 min prior to the induction of cystitis. […]

Substance: Oxytocin
- nociceptive threshold, response to mechanical stimulation [1]: increase in withdrawal latency
- Nasal rubbing (allergic rhinitis): 42%
- Sneezing (allergic rhinitis): 52%
- TNF-alpha concentration in BALF (TNF-alpha; 3 h after SDX provocation): effectively inhibited the increase
- TNF-alpha level relative to animals not receiving oxytocin (TNF-alpha; 24 h after SDX provocation): 32%
- water content of the pancreatic tissue (edema formation) [2]: 5.25±0.68 g/g d. wt.
- plasma protein extravasation, Evans blue accumulation in the bladder ([3]; cyclophosphamide 100 mg/kg i.p., cyclophosphamide alone 9.76±4.12): 2.56 ± 1.28 mg
- plasma protein extravasation, Evans blue accumulation in the bladder ([3]; rats given the vehicle of cyclophosphamide): 2.11 ± 1.37 mg
